# In PubChem BioAssay (NCI):
#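 Grown in 96-well plates, cells were treated for 48 hours with each compound at five concentrations. Insufficient inhibition: endpoint recorded as highest concentration tested. Here, GI50 denotes the concentration required for 50% inhibition of growth. Definition used: TGI = concentration required for complete inhibition of growth.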
# How the values were obtained:
# Assay in all cases: inhibition of tumour cell growth, NCI panel, 48 h
# ACHN renal = test system: ACHN renal
# CCRF-CEM leukemia = test system: CCRF-CEM leukemia
# HCT-116 colon = test system: HCT-116 colon
# HL-60(TB) leukemia = test system: HL-60(TB) leukemia
# M14 melanoma = test system: M14 melanoma
# NCI-H522 lung = test system: NCI-H522 lung
# OVCAR-8 ovarian = test system: OVCAR-8 ovarian
# SF-268 CNS = test system: SF-268 CNS
# SN12C renal = test system: SN12C renal
# MDA-MB-435 = test system: MDA-MB-435
SMILES,GI50 (ACHN renal),TGI (ACHN renal),GI50 (CCRF-CEM leukemia),TGI (CCRF-CEM leukemia),GI50 (HCT-116 colon),TGI (HCT-116 colon),GI50 (HL-60(TB) leukemia),TGI (HL-60(TB) leukemia),GI50 (M14 melanoma),TGI (M14 melanoma),GI50 (NCI-H522 lung),TGI (NCI-H522 lung),GI50 (OVCAR-8 ovarian),TGI (OVCAR-8 ovarian),GI50 (SF-268 CNS),TGI (SF-268 CNS),GI50 (SN12C renal),TGI (SN12C renal),TGI (MDA-MB-435),GI50 (MDA-MB-435)
COc1cc(CNC(=O)CCSc2nc3ccccc3c(=O)n2Cc2cc(OC)c(OC)c(OC)c2)cc(OC)c1OC,8.09 µM,> 100 µM,4.91 µM,> 100 µM,3.76 µM,13.3 µM,3.57 µM,> 100 µM,2.23 µM,5.8 µM,6.55 µM,27.5 µM,10 µM,50.7 µM,7.13 µM,> 100 µM,8.1 µM,> 100 µM,,
CCCCN(CCCC)C(=O)C(=O)CC(=O)/C=C/c1ccccc1,,> 100 µM,,> 100 µM,,> 100 µM,,> 100 µM,,> 100 µM,,> 100 µM,,> 100 µM,,> 100 µM,,> 100 µM,,
COc1cc(CC2CC(c3ccc4c(c3)OCO4)OC2=O)cc(OC)c1OC (stereo not drawn),,> 100 µM,,> 100 µM,,> 100 µM,,> 100 µM,,> 100 µM,,,,> 100 µM,,> 100 µM,,> 100 µM,> 100 µM,
CC(=O)OCC(OC(C)=O)C(OC(C)=O)C(OC(C)=O)C(=O)CNn1c(-c2ccccc2Cl)nc2ccc(Br)cc2c1=O (stereo not drawn),,> 100 µM,,> 100 µM,,> 100 µM,,90.1 µM,,> 100 µM,,> 100 µM,,> 100 µM,,> 100 µM,,> 100 µM,,
C/C=C/C(=O)[O-].N.N.N.N.N.[Co+3].[O-][Cl+3]([O-])([O-])[O-],> 100 µM,> 100 µM,> 100 µM,> 100 µM,> 100 µM,> 100 µM,> 100 µM,> 100 µM,> 100 µM,> 100 µM,> 100 µM,> 100 µM,> 100 µM,> 100 µM,> 100 µM,> 100 µM,> 100 µM,> 100 µM,,
COC(=O)C12C3C4C1C1C2C3C41C(=O)N(C(C)C)C(C)C (stereo not drawn),,> 100 µM,,> 100 µM,,> 100 µM,,> 100 µM,,> 100 µM,,> 100 µM,,> 100 µM,,> 100 µM,,> 100 µM,,
O=C(O)Cc1cc(=O)[nH]c2c1C(=O)CCC2,,> 100 µM,,> 100 µM,,,,> 100 µM,,> 100 µM,,> 100 µM,,> 100 µM,,> 100 µM,,> 100 µM,,
CN/N=C(\C(=O)Nc1ccc([N+](=O)[O-])cc1[N+](=O)[O-])C1NC(=O)NC1=O (stereo not drawn),,> 100 µM,,> 100 µM,,> 100 µM,,> 100 µM,,> 100 µM,,,,> 100 µM,,> 100 µM,,> 100 µM,,
COc1cc(/C=C\c2cc(OC)c(OC)c(OC)c2)cc(NS(=O)(=O)c2cccc(Cl)c2)c1OC,0.109 µM,> 100 µM,0.0492 µM,> 100 µM,0.0368 µM,> 100 µM,0.032 µM,> 100 µM,0.0344 µM,> 100 µM,0.0373 µM,88.2 µM,0.429 µM,> 100 µM,0.202 µM,> 100 µM,0.223 µM,> 100 µM,,
Cc1ccc(SCC(O)=C2C(=O)CCCC2=O)cc1,,> 100 µM,,> 100 µM,,> 100 µM,,> 100 µM,,> 100 µM,,> 100 µM,,> 100 µM,,> 100 µM,,> 100 µM,,
CCC1OC(/C(C)=C/C(C)/C=C/C2C(C)C2/C=C/C2OC(CC(=O)O)CC(O)C2O)CC=C1C (stereo not drawn),> 50 µM,> 50 µM,> 50 µM,> 50 µM,> 50 µM,> 50 µM,,,> 50 µM,> 50 µM,> 50 µM,> 50 µM,> 50 µM,> 50 µM,> 50 µM,> 50 µM,> 50 µM,> 50 µM,> 50 µM,> 50 µM
N=C1C(c2nc(-c3ccc(Br)cc3)cs2)=C(O)CN1CC1CCCO1 (stereo not drawn),> 100 µM,> 100 µM,> 100 µM,> 100 µM,,,> 100 µM,> 100 µM,,,,,,,> 100 µM,> 100 µM,> 100 µM,> 100 µM,> 100 µM,> 100 µM
O=C(O)c1oc2cccc3c2c1CCC3,,> 100 µM,,> 100 µM,,> 100 µM,,> 100 µM,,> 100 µM,,> 100 µM,,> 100 µM,,> 100 µM,,> 100 µM,,
c1ccc(COc2cccc3cccnc23)cc1,,> 100 µM,,> 100 µM,,> 100 µM,,57.5 µM,,> 100 µM,,> 100 µM,,> 100 µM,,88.4 µM,,> 100 µM,,
Cc1cccc(O)c(=O)c1,,> 100 µM,,33.8 µM,,> 100 µM,,12.1 µM,,> 100 µM,,> 100 µM,,> 100 µM,,> 100 µM,,> 100 µM,,
COC(=O)/C(=N/O)C(C(=O)OC)C(=O)C(=O)Nc1c(Cl)cc(C)cc1S(=O)(=O)O (stereo not drawn),,> 100 µM,,> 100 µM,,> 100 µM,,> 100 µM,,> 100 µM,,> 100 µM,,> 100 µM,,> 100 µM,,> 100 µM,,

SMILES,GI50 (ACHN renal),TGI (ACHN renal),GI50 (CCRF-CEM leukemia),TGI (CCRF-CEM leukemia),GI50 (HCT-116 colon),TGI (HCT-116 colon),GI50 (HL-60(TB) leukemia),TGI (HL-60(TB) leukemia),GI50 (M14 melanoma),TGI (M14 melanoma),GI50 (NCI-H522 lung),TGI (NCI-H522 lung),GI50 (OVCAR-8 ovarian),TGI (OVCAR-8 ovarian),GI50 (SF-268 CNS),TGI (SF-268 CNS),GI50 (SN12C renal),TGI (SN12C renal),TGI (MDA-MB-435),GI50 (MDA-MB-435)
COc1cc(C2(C)SCCCS2)c(I)c(OC)c1OC,,> 100 µM,,> 100 µM,,> 100 µM,,> 100 µM,,> 100 µM,,> 100 µM,,> 100 µM,,> 100 µM,,> 100 µM,,
O=c1cccccc1NCCNc1cccccc1=O,,> 100 µM,,> 100 µM,,> 100 µM,,> 100 µM,,> 100 µM,,> 100 µM,,> 100 µM,,> 100 µM,,27.9 µM,,
O=C1OC(c2ccccc2)=N/C1=C/N1CCCC1C(=O)O (stereo not drawn),,> 100 µM,,> 100 µM,,> 100 µM,,> 100 µM,,> 100 µM,,> 100 µM,,> 100 µM,,> 100 µM,,,,
O=C(/C=C/c1ccccc1)CCc1c(O)c2ccccc2oc1=O,,> 100 µM,,> 100 µM,,> 100 µM,,,,> 100 µM,,> 100 µM,,> 100 µM,,> 100 µM,,> 100 µM,> 100 µM,
C[C@@H](c1ccccc1)N(CC#N)C1CCC[C@H]1O (stereo partly drawn),,> 100 µM,,> 100 µM,,> 100 µM,,> 100 µM,,> 100 µM,,> 100 µM,,> 100 µM,,> 100 µM,,> 100 µM,,
[N-]=[N+]=Nc1c(Br)c(=O)[nH]c(=O)n1COCCO,,> 100 µM,,> 100 µM,,> 100 µM,,> 100 µM,,> 100 µM,,> 100 µM,,> 100 µM,,> 100 µM,,> 100 µM,,
O=C1C2=C(c3ccccc31)C(c1ccc(F)cc1)N1C(=O)CCSC1=N2 (stereo not drawn),,> 100 µM,,> 100 µM,,> 100 µM,,> 100 µM,,> 100 µM,,> 100 µM,,> 100 µM,,> 100 µM,,> 100 µM,,
O=C(Nc1ccccc1C(=O)O)C(=O)C(C(=O)c1ccccc1-c1ccccc1)C1OC(=O)c2ccccc21 (stereo not drawn),,92.3 µM,,78.4 µM,,36.5 µM,,70.6 µM,,33.4 µM,,30.6 µM,,37.9 µM,,39.5 µM,,39.1 µM,,
CCCCCCCCCCCCCCC(O)C1CCC(C(O)CCC(O)CCCCCC(O)CC2=CC(C)OC2=O)O1 (stereo not drawn),,,,5.12 µM,,11.1 µM,,1.56 µM,,22.8 µM,,7.4 µM,,14.8 µM,,12.2 µM,,9.24 µM,,
Cc1cc(Cl)ccc1NC(=O)CCCC(=O)C(C(=O)c1ccccc1)c1ccccc1 (stereo not drawn),,> 100 µM,,> 100 µM,,,,> 100 µM,,> 100 µM,,> 100 µM,,,,> 100 µM,,> 100 µM,,
COc1cc2c3c(c1OC)Oc1ccc(cc1)CC1c4c(cc(OC)c(OC)c4Oc4ccc(cc4)CC3N(C)CC2)CCN1C (stereo not drawn),,> 100 µM,,55.1 µM,,27.2 µM,,34.1 µM,,33.2 µM,,25.8 µM,,60 µM,,64.5 µM,,49.7 µM,,
N[C@H](C(=O)O)[C@@H](Cl)CC(=O)O,,> 100 µM,,> 100 µM,,> 100 µM,,> 100 µM,,> 100 µM,,> 100 µM,,> 100 µM,,> 100 µM,,> 100 µM,,
CNC(C)Cc1ccc(O)cc1 (stereo not drawn),,> 100 µM,,> 100 µM,,> 100 µM,,> 100 µM,,> 100 µM,,> 100 µM,,> 100 µM,,> 100 µM,,> 100 µM,,
CCOC(=O)NC(=O)c1cn(C2OC(CO)C(O)C2O)c(=O)[nH]c1=O (stereo not drawn),,> 100 µM,,,,> 100 µM,,> 100 µM,,> 100 µM,,> 100 µM,,> 100 µM,,> 100 µM,,> 100 µM,,
CCC1(CC)C(=O)[N-]C(=O)[N-]C1=O.[Au+].[Au+].c1ccc([PH+](c2ccccc2)c2ccccc2)cc1.c1ccc([PH+](c2ccccc2)c2ccccc2)cc1,1.7 µM,3.07 µM,,,,,,,0.752 µM,2.05 µM,0.119 µM,0.244 µM,,,,,2.08 µM,4.75 µM,,
Cc1ccc(C)c2c1CCc1cc3ccccc3nc1-2,,> 100 µM,,> 100 µM,,> 100 µM,,,,> 100 µM,,> 100 µM,,> 100 µM,,> 100 µM,,> 100 µM,,
